Results on three compounds are retold here after patent US10390532B2, “Insecticide composition including thiamethoxam and a synergistic agent” (priority 2015, dated 2019).

Holding throughout (format): cell-based, Periplaneta americana
For test [1], the system named is cockroach Dorsal Unpaired Median (DUM) neurons. As to conditions: for origin of the intracellular calcium rise: with caffeine, omega-conotoxin, pirenzepine.
Test [2] shares this test system. Nature of the test: Whole-cell patch-clamp, current-clamp: DUM neuron spontaneous electrical activity. As to conditions: 10^-8 M. As for the experimental part:
(§1) Experiments were carried out on cockroach Dorsal Unpaired Median (DUM) neurons. Cockroach neuronal preparations are commonly used as biomedical models for vertebrates and invertebrates and DUM neurons are, furthermore, electrophysiologically and pharmacologically well characterized since most of the biophysical and pharmacological properties of ionic currents and receptors underlying and modulating their spontaneous action potentials have been established by using the well-known patch-clamp technique.
(§2) Adult male cockroaches, Periplaneta americana (see FIG. 1), are taken from our laboratory colonies, which are maintained under standard conditions (29° C., photoperiod of 12 h light/12 h dark). Animals are immobilized dorsal-side up on a dissection dish. The dorsal cuticle, gut and some dorso-longitudinal muscles are removed to allow access to the ventral nerve cord. The abdominal nerve cord and its terminal abdominal ganglion (TAG), carefully dissected under a binocular microscope, are placed in normal saline. Animal care and handling procedures are in accordance with French institutional and national health guidelines. […]
(§3) Electrical activity and neonicotinoïd-induced inward currents are recorded using the patch clamp technique in the whole-cell recording configuration under current-clamp and voltage-clamp mode, respectively. […] Signals are recorded with an Axopatch 200A amplifier. […]
(Patch clamp records ionic current or voltage across a cell membrane.)

Test [3] has the same test system. Nature of the test: Voltage-clamp thiamethoxam-induced current in DUM neurons after pretreatment with acetylcholine. As for the experimental part:
Electrical activity and neonicotinoïd-induced inward currents are recorded using the patch clamp technique in the whole-cell recording configuration under current-clamp and voltage-clamp mode, respectively. Patch-clamp electrodes are pulled from borosilicate glass capillary tubes (GC150T-10) using a P-97 model puller. Patch pipettes have resistances ranging from 1 to 1.2 MΩ when filled with internal pipette solution. The liquid junction potential between extracellular and intracellular solutions is always corrected before the formation of a giga Ohm seal (>3GΩ). Signals are recorded with an Axopatch 200A amplifier. […] Under voltage-clamp conditions, DUM neuron somata are voltage-clamped at a steady state holding potential of −50 mV to measure the effects of thiamethoxam applied alone and after pretreatment with IR3535® (10^−8 M). Experiments are carried out at room temperature.
Acetylcholine at a concentration of 10^−3M has been applied to DUM neurons during one second, three minutes before testing thiamethoxam at 10^−7M, 10^−6M and 10^−5M on DUM neurons under the same protocol as example 3.

For test [4] the test system is unchanged. Nature of the test: Whole-cell patch-clamp, voltage-clamp: thiamethoxam-induced inward current in DUM neurons. Particulars: holding potential -50 mV. As for the experimental part:
as §1, §2, §3

Where two headings read alike, the source gives them in different places.

As for `CCN(CC)C(=O)c1cccc(C)c1` [DEET, N,N-diethyl-3-methylbenzamide], in test [1] (DEET at concentrations higher than 10^-7 M), the “effect on intracellular calcium concentration” value was “an important decrease of the intracellular calcium concentration”. Moreover, in test [1] (DEET between 3.10-8 M and 3.10-7 M), the “ratio of emitted fluorescence (340 nm/380 nm)” value is “above 0.6”. Further, the “concentration at which the intracellular calcium elevation reaches a maximum” value in test [1] (DEET, DUM neurons) is listed as 10^−7 M. Besides, in test [1] (DEET, maximum at 10^-7 M), the “maximum value of ratio of emitted fluorescence (340 nm/380 nm)” value was 0.7.
On to `CCCCN(CCC(=O)OCC)C(C)=O` [IR3535®, 3-[N-Butyl-N-acetyl]-aminopropionic acid, ethyl ester], for which the “lower concentration which produces a significant elevation of intracellular calcium concentration” value in test [1] (DUM neurons) is 10^−8 M. The “concentration at which the zone I intracellular calcium increase reaches a maximum” value in test [1] (DUM neurons, zone I) is 10^−8 M. In addition, in test [1] (DUM neurons, zone III), the “concentration producing the maximum effect on intracellular calcium (zone III)” value was 3.10^−5 M. The “origin of the intracellular calcium rise” value in test [1] (IR3535 at 10^-8 M) is “results from extracellular calcium through plasma membrane voltage-dependent calcium channels via M1/M3 mAChR sub-type modulation”; in test [1] (higher concentrations of IR3535 (10^-5 M)), “both extracellular calcium and calcium released from internal stores are involved”. Further, the “effect on membrane potential and spontaneous action potential discharge frequency” value in test [2] was “induces a significant membrane depolarization associated with an increase of the spontaneous action potential discharge frequency”.
As for `CN1COCN(Cc2cnc(Cl)s2)/C1=N\[N+](=O)[O-]` [thiamethoxam], the “current amplitude, rank among tested concentrations” value is listed as “lowest value” in test [3] (thiamethoxam 10^-6 M after acetylcholine 10^-3 M) and “highest value” in test [3] (thiamethoxam 10^-7 M after acetylcholine 10^-3 M). The induced current entry was “induces a current” in test [3] (thiamethoxam 10^-7, 10^-6, 10^-5 M after acetylcholine 10^-3 M (1 s, 3 min before)) and “no current has been recorded” in test [3] (thiamethoxam alone, no acetylcholine pretreatment). Further, in test [4] (thiamethoxam 10^-6 M after pretreatment with IR3535 10^-8 M), the “mean inward current amplitude relative to thiamethoxam applied alone” value is on record as “about 6 fold”. The “induced inward current amplitude” value in test [4] (thiamethoxam 10^-6 M alone, n=3-4) was “induces an inward current with small amplitudes”.
